Reference: ChEMBL document CHEMBL1221378, “Synthesis of cholestane glycosides bearing OSW-1 disaccharide or its 1-->4-linked analogue and their antitumor activities” (Bioorg Med Chem Lett, 2010)

Legend:
Type in all cases: functional, cell-based
Bel-7402 = test: Cytotoxicity against human Bel7402 cells after 72 hrs by MTT assay; details: Bel-7402, 72 h
HCT-8 = test: Cytotoxicity against human HCT8 cells after 72 hrs by MTT assay; details: HCT-8, 72 h
A549 = test: Cytotoxicity against human A549 cells after 72 hrs by MTT assay; details: A549, 72 h
BGC-823 = test: Cytotoxicity against human BGC823 cells after 72 hrs by MTT assay; details: BGC-823, 72 h
A2780 = test: Cytotoxicity against human A2780 cells after 72 hrs by MTT assay; details: A2780, 72 h

SMILES	IC50 (Bel-7402) [nM]	IC50 (HCT-8) [nM]	IC50 (A549) [nM]	IC50 (BGC-823) [nM]	IC50 (A2780) [nM]
COc1ccc(C(=O)O[C@H]2[C@H](O[C@@H]3[C@@H](OC(C)=O)[C@H](O[C@H]4C[C@H]5[C@@H]6CC=C7C[C@@H](O)CC[C@]7(C)[C@H]6CC[C@]5(C)[C@H]4[C@H](C)C(=O)CC[C@@H](C)CO)OC[C@H]3O)OC[C@@H](O)[C@@H]2O)cc1	39	23	46	13	73
COc1ccc(C(=O)O[C@H]2[C@H](O[C@@H]3CO[C@@H](O[C@H]4C[C@H]5[C@@H]6CC=C7C[C@@H](O)CC[C@]7(C)[C@H]6CC[C@]5(C)[C@H]4[C@H](C)C(=O)CC[C@@H](C)CO)[C@H](OC(C)=O)[C@H]3O)OC[C@@H](O)[C@@H]2O)cc1	> 10000	> 10000	> 10000	> 10000	> 10000
COc1ccc(C(=O)O[C@H]2[C@H](O[C@@H]3CO[C@@H](O[C@@H](CC[C@@H](C)CO)[C@@H](C)[C@H]4[C@@H](O[C@@H]5OC[C@@H](O[C@@H]6OC[C@@H](O)[C@H](O)[C@H]6OC(=O)c6ccc(OC)cc6)[C@H](O)[C@H]5OC(C)=O)C[C@H]5[C@@H]6CC=C7C[C@@H](O)CC[C@]7(C)[C@H]6CC[C@]45C)[C@H](OC(C)=O)[C@H]3O)OC[C@@H](O)[C@@H]2O)cc1	> 10000	> 10000	> 10000	> 10000	> 10000
CC(=O)O[C@H]1C(=O)[C@@]2(C)[C@H]([C@H](OC(=O)c3ccccc3)[C@]3(O)C[C@H](OC(=O)[C@H](O)[C@@H](NC(=O)c4ccccc4)c4ccccc4)C(C)=C1C3(C)C)[C@]1(OC(C)=O)CO[C@@H]1C[C@@H]2O [PACLITAXEL]	60	51	16	< 1	< 1
